Residue numbers refer to the chain shown, from its start. “Also recorded” adds a separate entry of the source.
How the values were obtained:
H875Y/T878A-AR = target: T1, H875Y/T878A-AR (Homo sapiens, UniProt P10275, H875Y/T878A); assay: cell-based
T1 sequence (P10275 1-920 H875Y/T878A): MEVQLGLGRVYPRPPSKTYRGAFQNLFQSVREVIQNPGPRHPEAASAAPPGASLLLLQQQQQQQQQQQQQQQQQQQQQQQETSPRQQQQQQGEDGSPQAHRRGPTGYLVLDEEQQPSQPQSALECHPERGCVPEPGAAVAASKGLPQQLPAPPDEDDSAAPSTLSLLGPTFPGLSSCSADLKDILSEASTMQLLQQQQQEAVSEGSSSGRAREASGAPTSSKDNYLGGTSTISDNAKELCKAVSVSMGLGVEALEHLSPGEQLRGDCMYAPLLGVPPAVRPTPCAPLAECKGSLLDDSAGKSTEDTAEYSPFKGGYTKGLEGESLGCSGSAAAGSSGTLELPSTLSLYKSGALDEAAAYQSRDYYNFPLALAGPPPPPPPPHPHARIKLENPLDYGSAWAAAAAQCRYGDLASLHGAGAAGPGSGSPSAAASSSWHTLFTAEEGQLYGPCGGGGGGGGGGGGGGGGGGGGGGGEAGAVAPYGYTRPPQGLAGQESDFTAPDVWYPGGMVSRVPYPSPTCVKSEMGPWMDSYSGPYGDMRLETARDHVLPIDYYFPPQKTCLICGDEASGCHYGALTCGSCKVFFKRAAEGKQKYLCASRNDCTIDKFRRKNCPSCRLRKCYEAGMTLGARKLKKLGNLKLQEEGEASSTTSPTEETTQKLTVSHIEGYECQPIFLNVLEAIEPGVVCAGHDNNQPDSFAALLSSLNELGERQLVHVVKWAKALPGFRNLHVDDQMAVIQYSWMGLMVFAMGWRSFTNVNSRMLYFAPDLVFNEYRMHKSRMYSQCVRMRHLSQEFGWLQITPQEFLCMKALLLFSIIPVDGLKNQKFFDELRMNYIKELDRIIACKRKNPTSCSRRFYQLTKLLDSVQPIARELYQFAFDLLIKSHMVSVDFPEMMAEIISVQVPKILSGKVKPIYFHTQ

M896T-AR = target: T2, M896T-AR (Homo sapiens, UniProt P10275, M896T); assay: cell-based
T2 sequence (P10275 1-920 M896T): T1 sequence (P10275 1-920 H875Y/T878A) with Y875H, A878T, M896T

WT-AR = target: T3, WT-AR (Homo sapiens, UniProt P10275); settings: concentrations up to 500 nM
T3 sequence (P10275 1-920): T1 sequence (P10275 1-920 H875Y/T878A) with Y875H, A878T

C[C@]12CCC(=O)C=C1CC[C@@H]1[C@@H]2[C@@H](O)C[C@@]2(C)[C@H]1CC[C@]2(O)C(=O)CO [hydrocortisone]
EC50 (H875Y/T878A-AR): 0.105 µM
EC50 (M896T-AR): > 0.5 µM
Transcriptional activation of wild-type AR (in words) (WT-AR): not activated; also recorded: did not exhibit any significant transcriptional activation

Source: paper PMC4729137, “Functional analysis of androgen receptor mutations that confer anti-androgen resistance identified in circulating cell-free DNA from prostate cancer patients” (Genome Biology, 2016)
